EP0433163A2, “Process for the preparation of imidazobenzodiazepines and their salts” (ROUSSEL-UCLAF, priority 1989, dated 1991)

How the values were obtained:
[1] = molecular target: récepteurs de benzodiazépine; assay: Benzodiazepine receptor binding (FRB), method of GB 2 128 989; conditions: in vitro benzodiazepine receptor binding; type of value not stated; read-out: FRBnM
Excerpt: La recherche de la fixation aux récepteurs de benzodiazépine (FRB) est réalisée par le procédé décrit dans GB 2 128 989.

[2] = test system: récepteurs de benzodiazépine; assay: In vivo binding to benzodiazepine receptors, method of Goeders and Kuhar, Life Sciences (1985) 37 345
Excerpt: La mesure de la fixation in vivo aux récepteurs de benzodiazépine est réalisée selon le procédé décrit par Goeders N.E. and Kuhar M J, Life Sciences (1985) 37 345.

Structure (SMILES)	IC50 [1]	Fixation in vivo DE50 mg/pk ip [2]
CCOC(=O)c1ncn2c1CN(C)C(=O)c1cccc(F)c1-2 [EXEMPLE 1D, 5,6-dihydro-10-fluoro-5-méthyl-6-oxo-4H-imidazo [1,5-a] [1,4] benzodiazépine-3-carboxylate d'éthyle]	410 nM	21 mg/pk
CCOC(=O)c1ncn2c1CN(C)C(=O)c1c(F)ccc(F)c1-2 [EXEMPLE 1E, 7,10-difluoro-5,6-dihydro-5-méthyl-6-oxo-4H-imidazo [1,5-a] [1,4] benzodiazépine-3-carboxylate d'éthyle]	174 nM	1,1 mg/pk
CCOC(=O)c1ncn2c1CN(C)C(=O)c1c(F)c(F)c(F)c(F)c1-2 [EXEMPLE 1G, 5,6-dihydro-5-méthyl-6-oxo-7,8,9,10-tétrafluoro-4H-imidazo [1,5-a] [1,4] benzodiazépine-3-carboxylate d'éthyle]	7500 nM	100 mg/pk
CN1Cc2c(C(=O)C3CC3)ncn2-c2cccc(Cl)c2C1=O [EXEMPLE 3B, 7-chloro-5,6-dihydro-5-méthyl-6-oxo-4H-imidazo [1,5-a] [1,4] benzodiazépine-3-yl-cyclopropylméthanone]	7.7 nM	
CN1Cc2c(C(=O)C3CC3)ncn2-c2cccc(C(F)(F)F)c2C1=O [EXEMPLE 3C, 5,6-dihydro-5-méthyl-6-oxo-7-trifluorométhyl-4H-imidazo [1,5-a] [1,4] benzodiazépine-3-yl-cyclopropylméthanone]	9.4 nM	0,05 mg/pk
CN1Cc2c(C(=O)C3CC3)ncn2-c2cccc(F)c2C1=O [EXEMPLE 3D, 5,6-dihydro-7-fluoro-5-méthyl-6-oxo-4H-imidazo [1,5-a] [1,4] benzodiazépine-3-yl-cyclopropylméthanone]	27 nM	
O=C1NCc2c(C(=O)C3CC3)ncn2-c2ccccc21 [EXEMPLE 4, 5,6-dihydro-6-oxo-4H-imidazo [1,5-a] [1,4] benzodiazépine-3-yl-cyclopropylméthanone]	582 nM	
CCOC(OCC)c1ncn2c1CN(C)C(=O)c1c(Cl)cccc1-2 [EXEMPLE 5, 7-chloro-3-diethoxyméthyl-5,6-dihydro-5-méthyl-4H-imidazo [1,5-a] [1,4] benzodiazépine-6(4H)-one]	339 nM	2,1 mg/pk
CCOC(=O)c1ncn2c1CN(C)C(=O)c1cccc(N)c1-2 [EXEMPLE 6, 5,6-dihydro-10-amino-5-méthyl-6-oxo-4H-imidazo [1,5-a] [1,4] benzodiazépine-3-carboxylate d'éthyle]	966 nM	
